Laboratory results as given in US9505795B2, “Method for producing scyllo-inositol” (Asahi Kasei Chemicals Corporation, priority 2012, dated 2016).

What was measured:
[1] = water solubility compared with scyllo-inositol; type: physicochemical; details: 25° C., W/V; ratio to scyllo-inositol
Excerpt: Since the scyllo-inositol derivative of the present invention can be produced and treated at high concentration in an aqueous solution, producing scyllo-inositol by obtaining the scyllo-inositol derivative of the present invention and treating it enzymatically has many advantages. Such methods are therefore one preferred method of utilizing the scyllo-inositol derivative of the present invention.

amyloid β protein = details: reported in Non-patent Reference 1; cited from earlier work

Row | water solubility relative to the original scyllo-inositol [1] | Structure (SMILES) | effect on amyloid β protein aggregation (amyloid β protein)
1 | at least four | OC[C@@H]1O[C@@H](O[C@H]2[C@H](O)[C@H](O)[C@H](O)[C@@H](O)[C@H]2O)[C@@H](O)[C@@H](O)[C@@H]1O [scyllo-inositol derivative, 1-O-β-D-glucopyranosyl-scyllo-inositol] | 
2 |  | O[C@H]1[C@H](O)[C@@H](O)[C@H](O)[C@@H](O)[C@@H]1O [scyllo-inositol, cis-1,3,5-trans-2,4,6-cyclohexanehexyl] | inhibitory effect
